Test results: patent publication US20210015772A1, “PHARMACEUTICAL COMPOSITION FOR PREVENTION OR TREATMENT OF FIBROSIS” (CRYSTALGENOMICS, INC., priority 2018, published 2021)

What was measured:
Assay type in all cases: in vivo, C57BL/6 mice
[1] = test system: bleomycin-induced pulmonary fibrosis; assay: Histopathological analysis of lung (H&E, Masson's trichrome) in bleomycin-induced mouse model; settings: 15, 30, 60 mg/kg intraperitoneally for 2 weeks after 2 mg/kg bleomycin into the airway
Description: (§1) As a bleomycin model, 7-week old female C57BL/6 mice were used, and the mice were divided into a total of 5 groups, a bleomycin-administered group, CG200745-administered groups in which CG200745 is administered at 15, 30, 60 mg/kg after administration of bleomycin, and a control group to perform the experiment. Airway incision was performed on the mice and 2 mg/kg bleomycin was injected into the airway in a volume of 50 μl. After injection, the incision site was closed with 5-0 nylon. After the injection of bleomycin, the drug was administered intraperitoneally for a total of 2 weeks. The mice were sacrificed and subjected to chest opening and then the lungs were removed and fixed with 4% paraformaldehyde. They were fixed by immersing in 4% paraformaldehyde for 48 hours at 4° C., and then a paraffin block was prepared. 4 μm of microsection was made from the paraffin-embedded tissue and attached to a slide. Hemotoxin and eosin staining and Masson's trichrome staining were performed. For hemotoxin and eosin staining, the slide was immersed in xylene twice for 5 minutes each and in 100%, 95% and 70% ethanol for 2 minutes each, and washed with running distilled water. After washing, the slide was immersed in hematoxylin for 1 minute, washed several times with running distilled water, then immersed in eosin for 30 seconds and washed several times with running distilled water. […]

[2] = test system: polyhexamethylene guanidine-induced pulmonary fibrosis; assay: Histopathological analysis of lung (H&E, Masson's trichrome) in polyhexamethylene guanidine-induced pulmonary fibrosis mouse model; settings: 15, 30, 60 mg/kg intraperitoneally for 2 weeks after 1 mg/kg polyhexamethylene guanidine into the airway
Description: as §1, with “a polyhexamethylene guanidine (PHMG)” for “a bleomycin”, “a polyhexamethylene guanidine-administered” for “a bleomycin-administered”, “of polyhexamethylene guanidine,” for “of bleomycin,”, “and 1” for “and 2”, “mg/kg polyhexamethylene guanidine” for “mg/kg bleomycin”, “water.” for “water. After washing, the slide was immersed in hematoxylin for 1 minute, washed several times with running distilled water, then immersed in eosin for 30 seconds and washed several times with running distilled water.”

collagen [3] = assay: Sircol assay of bronchoalveolar lavage fluid in polyhexamethylene guanidine-induced pulmonary fibrosis mouse model; settings: 15, 30, 60 mg/kg intraperitoneally for 2 weeks after 1 mg/kg polyhexamethylene guanidine into the airway
Description: (§2) As a polyhexamethylene guanidine (PHMG) model, 7-week old female C57BL/6 mice were used, and the mice were divided into a total of 5 groups, a polyhexamethylene guanidine-administered group, CG200745-administered groups in which CG200745 is administered at 15, 30, 60 mg/kg after administration of polyhexamethylene guanidine, and a control group to perform the experiment. Airway incision was performed on the mice and 1 mg/kg polyhexamethylene guanidine was injected into the airway in a volume of 50 μl. After injection, the incision site was closed with 5-0 nylon. After the injection of polyhexamethylene guanidine, the drug was administered intraperitoneally for a total of 2 weeks.
After two weeks of drug administration, the skin of the airway of the mouse was incised to expose the airway and washed with 800 μl of PBS into the trachea and then 500 μl of the solution was recovered therefrom to obtain bronchoalveolar lavage fluid. The bronchoalveolar lavage fluid was centrifuged at 4° C. and 1,200 rpm for 5 minutes to obtain supernatant. 50 μl of the bronchoalveolar lavage fluid and 1 ml of sircol dye reagent were mixed for 30 minutes. […] After discarding the supernatant, 1 ml of Alkali reagent was added and absorbance was measured at 555 nm.

[4] = test system: kidney with acute renal failure induced after ureteral obstruction (renal fibrosis); assay: Histopathology analysis (hematoxylin and eosin) of kidney in unilateral ureteral obstruction (renal failure) mouse model; settings: 30 mg/kg/day intake in distilled water, day 7 after ureteral obstruction, compared to the solvent control group
Description: 8-week old female C57BL/6 mice were used. After opening the abdomen of C57BL/6 mice, one of two ureters was closed with 6-0 cotton yarn. After closing the ureter, the abdomen was sutured and disinfected. Immediately after surgery, the host mice were classified into the solvent control group which is the non-intake group, and the CG200745 intake group in which CG200745 dissolved in distilled water was consumed (30 mg/kg/day). On the 7th day after surgery, the solvent control group and the CG200745 intake group mice were euthanized, and then normal kidney and the kidney with acute renal failure induced after ureteral obstruction were extracted. The extracted normal kidney and kidney with acute renal failure induced were fixed with 4% paraformaldehyde, and then covered with paraffin to prepare a tissue section with a 3 μm thickness. Hematoxylin and eosin staining was conducted on the completed tissue sections to perform a histopathological analysis of renal tissues. For hematoxylin staining, kidney tissue sections were stained with Gill's hematoxylin for 5 minutes, washed with tap water, and then treated with 95% ethanol. Eosin staining was performed by staining with eosin and phloxine for 1 minute. The tissue sections were then dehydrated with ethanol and xylene and fixed with Canada balsam.

[5] = test system: α-SMA, Collagen I, PAI-1, Acetylated H3; assay: Western blot of fibrosis markers and Acetylated H3 in lung tissue of polyhexamethylene guanidine-induced pulmonary fibrosis mouse model; settings: PHMG model, 15, 30, 60 mg/kg intraperitoneally for 2 weeks, western blot densitometry
Description: as §2
(§3) Western blot was performed to identify makers of pulmonary fibrosis (α-SMA, collagen I, PAI-1, E-cadherin, N-cadherin) and Acetylated H3 in tissues. The mice were sacrificed, and then subjected to chest opening and the lungs were removed and stored frozen for a day, and the mouse tissues were ground to prepare a protein sample. It was subjected to SDS-PAGE and the fractionated protein sample was transferred to PVDF (polyvinylidene difluoride) membrane. […]
(§4) With the average for two controls being 1, the relative value was recorded to conduct densitometry analysis.

[6] = test system: α-SMA (alpha-smooth muscle actin); assay: Expression level of fibrosis marker α-SMA by real-time PCR in kidney of unilateral ureteral obstruction mouse model; settings: 30 mg/kg intake, kidney with renal failure induced through ureteral obstruction, compared to the solvent control group
Description: 8-week old female C57BL/6 mice were used. After opening the abdomen of C57BL/6 mice, one of two ureters was closed with 6-0 cotton yarn. After closing the ureter, the abdomen was sutured and disinfected. Immediately after surgery, the host mice were classified into the solvent control group which is the non-intake group, and the CG200745 intake group in which CG200745 dissolved in distilled water was consumed (30 mg/kg/day). On the 7th day after surgery, the solvent control group and the CG200745 intake group mice were euthanized, and then normal kidney and the kidney with acute renal failure induced after ureteral obstruction were extracted. […]
The kidney cortex was homogenized with Trizol solution (Invitrogen, Carlsbad, Calif.). […] The washed RNA was dissolved in distilled water and then the concentration was determined by measuring absorbance at 260 nm (Ultraspec 2000; Pharmacia Biotech, Cambridge, UK). cDNA was produced by reverse transcription of […] RNA using oligo(dT) primer and superscript reverse transcriptase II (Invitrogen, Carlsbad, Calif.). The produced cDNA was quantified by measuring with SYBR Green using Smart Cycler II System (Cepheid, Sunnyvale, Calif.). […]

[7] = test system: α-SMA, Collagen I, PAI-1, Acetylated H3; assay: Western blot of fibrosis markers and Acetylated H3 in lung tissue of bleomycin-induced mouse model; settings: 15, 30, 60 mg/kg intraperitoneally for 2 weeks, western blot densitometry
Description: as §2, with “a bleomycin” for “a polyhexamethylene guanidine (PHMG)”, “a bleomycin-administered” for “a polyhexamethylene guanidine-administered”, “of bleomycin,” for “of polyhexamethylene guanidine,”, “and 2” for “and 1”, “mg/kg bleomycin” for “mg/kg polyhexamethylene guanidine”
as §3, §4

collagen [8] = assay: Sircol assay of bronchoalveolar lavage fluid in bleomycin-induced mouse model; settings: 15, 30, 60 mg/kg intraperitoneally for 2 weeks after 2 mg/kg bleomycin into the airway
Description: as §2, with “a bleomycin” for “a polyhexamethylene guanidine (PHMG)”, “a bleomycin-administered” for “a polyhexamethylene guanidine-administered”, “of bleomycin,” for “of polyhexamethylene guanidine,”, “and 2” for “and 1”, “mg/kg bleomycin” for “mg/kg polyhexamethylene guanidine”
After two weeks of drug administration, the skin of the airway of the mouse was incised to expose the airway and washed with 800 μl of PBS into the trachea and then 500 μl of the solution was recovered therefrom to obtain bronchoalveolar lavage fluid. The bronchoalveolar lavage fluid was centrifuged at 4° C. and 1,200 rpm for 5 minutes to obtain supernatant. 50 μl of the bronchoalveolar lavage fluid and 1 ml of sircol dye reagent were mixed for 30 minutes. After centrifugation at 4° C. and 12,000 rpm for 10 minutes, the supernatant was discarded, 750 μl of Acid-salt wash reagent was added for washing, and then centrifugation was performed at 12,000 rpm for 10 minutes. After discarding the supernatant, 1 ml of Alkali reagent was added and absorbance was measured at 555 nm.

With `CN(C)CCCNC(=O)/C(=C/CCCCC(=O)NO)COc1cccc2ccccc12` [CG200745, (E)-N1-(3-(dimethylamino)propyl)-N8-hydroxy-2-((naphthalene-1-yloxy)methyl)oct-2-enediamide] the “degree of fibrosis and collagen accumulation increased by bleomycin treatment (lung histopathology)” value [1] was “significantly decreased in CG200745 concentration-dependent manner and normalized”, the “polyhexamethylene guanidine-induced pulmonary fibrosis (lung histopathology)” value [2] was “suppressed in CG200745 concentration-dependent manner and normalized” and the “collagen in bronchoalveolar lavage fluid increased by polyhexamethylene guanidine (sircol assay)” value (collagen [3]) was “significantly decreased in CG200745 concentration-dependent manner”. For the same compound, the “fibrosis progression in the kidney (histopathology)” value [4] was “inhibited”, the “expression levels of fibrosis markers (α-SMA, Collagen I, PAI-1) increased by polyhexamethylene guanidine treatment” value ([5]; lung tissue) was “reduced in CG200745 concentration-dependent manner” and the “level of histone acetylation (Acetylated H3) in lung tissue” value [5] was “increased”. The “reduction of α-SMA expression (real-time PCR)” value [6] was ≥ 50%, the “expression levels of fibrosis markers (α-SMA, Collagen I, PAI-1) increased by bleomycin treatment” value ([7]; lung tissue) was “reduced in CG200745 concentration-dependent manner” and the “level of histone acetylation (Acetylated H3) in lung tissue” value [7] was “increased”. The “collagen in bronchoalveolar lavage fluid increased by bleomycin treatment (sircol assay)” value (collagen [8]) was “significantly decreased in CG200745 concentration-dependent manner”.
